Data taken from ChEMBL document CHEMBL5223077, “Recent advances on synthesis and biological activities of aurones” (Bioorg Med Chem, 2021).
In brackets after ≈: the same amount, converted by molar mass.

Key:
[1] = test system: Mycobacterium tuberculosis; assay: Antimycobacterial activity against extensively drug resistant Mycobacterium tuberculosis; format: functional
[2] = test system: Mycobacterium tuberculosis; assay: Antimycobacterial activity against multidrug resistant Mycobacterium tuberculosis; format: functional

`CC(=O)N1/C(=C\c2ccc(-c3ccsc3)cc2)C(=O)c2ccccc21` showed an MIC [1] of 7.55 µM (≈ 2.61 µg/mL) and an MIC [2] of 7.55 µM (≈ 2.61 µg/mL).
